Assay [1] concerns acetylated tubulin. The assay is described as follows: Western blot of acetylated tubulin in MM1S cells. Type of assay: cell-based, human. The settings on record: 100 nM. The text has this: (§1) FIGS. 12A, 12B, and 12C are a series of western blots showing that degrader 12d selectively promotes HDAC6 degradation in MM1S cells.
(§2) To further examine the selectivity of the new generation of HDAC6 degraders, compound 12d was compared to SAHA, Next-A, degrader 1 and pan-inhibitor 2 for change of acetylated a-tubulin and acetylated histone H3.
(§3) When the cells reached 90% confluence, they were harvested and plated 1×10^6 cells per well in 6-well plate. After overnight seeding, the cells were treated with a solution of compounds or vehicle in culture medium. The culture medium was removed after treatment and then washed twice with cold PBS. To obtain whole cell lysate, all cells were treated with RIPA lysis buffer (25 mM Tris, pH 7-8, 150 mM NaCl, 0.1% SDS, 0.5% sodium deoxycholate, 1% Triton X-100, protease inhibitor cocktail (Roche, 1 tablet per 10 mL) and 1 mM PMSF) on ice for 10 minutes. Supernatant was collected after spinning down at 16,000 g at 4° C. for 15 minutes. Protein concentration was measured by using the Pierce BCA protein assay (Thermo Fisher Scientific). About 10-40 μg of total protein was mixed with 4× Laemmli Loading Dye (250 mM Tris, pH 6.8, 40% glycerol, 5% SDS, 0.005% bromophenol blue, 4% BME) and heated at 95-100° C. for 5 minutes. The heated sample was then subjected to 7.5-12% SDS-PAGE and transferred to PVDF membrane (Bio-Rad,). The membrane was blocked in 5% non-fat milk (Bio-rad) in TBS-T washing buffer (137 mM NaCl, 20 mM Tris, 0.1% Tween) and then incubated with primary antibodies at 4° C. overnight. […] The Immunoblot was generated by ChemiDoc MP Imaging Systems (Bio-Rad) and analyzed by Image J software (only available for download online at https://imagej.net/Downloads). […]
The activity of all eleven “n+4” VHL-based potential degraders to suppress HDAC6 expression was tested at 100 nM and compared to CRBN degrader 2 in MM1S cells. The resulting cells were analyzed for HDAC6 expression by in-cell ELISA (FIG. 15). […]
A general note: In western blotting, separated proteins are transferred to a membrane and probed.

For assay [2], the system named is acetylated histone H3. The assay is described as follows: Western blot of acetylated histone H3 in MM1S cells. Type of assay: cell-based, human.
From the text: as §1, §2
as §3, with “Scientific).” for “Scientific). About 10-40 μg of total protein was mixed with 4× Laemmli Loading Dye (250 mM Tris, pH 6.8, 40% glycerol, 5% SDS, 0.005% bromophenol blue, 4% BME) and heated at 95-100° C. for 5 minutes. The heated sample was then subjected to 7.5-12% SDS-PAGE and transferred to PVDF membrane (Bio-Rad,). The membrane was blocked in 5% non-fat milk (Bio-rad) in TBS-T washing buffer (137 mM NaCl, 20 mM Tris, 0.1% Tween) and then incubated with primary antibodies at 4° C. overnight.”

Regarding `O=C(CCCCCCC(=O)Nc1ccccc1)NO` [SAHA, Suberoylanilide hydroxamic acid, reference compound], in assay [1], the “change of acetylated tubulin” value was “didn't”. Also, the “change of acetylated histone H3” value in assay [2] was “strong acetylated histone H3 signal”.

These data come from patent US11059815B2, “Synthesis of small molecule histone deacetylase 6 degraders, compounds formed thereby, and pharmaceutical compositions containing them” (Wisconsin Alumni Research Foundation, priority 2018, dated 2021).
